Measurements from US20250108088A1, “REGENERATIVE PEPTIDES AND METHODS FOR USE THEREOF” (priority 2023, published 2025).
“Also recorded” adds a separate entry of the source.

Tests used:
[1] = system: Acinetobacter baumannii ATCC 196062; test: Diffusion agar plate method, zone of inhibition; type: cell-based; details: 62.5 μg/ml to 1000 μg/ml; FIG. 5, FIG. 10
Procedure: (§1) Cell culture: Cultures of each bacterial strain were prepared by inoculating on Muller Hinton Agar (MHA) medium. After overnight incubation at 37° C., the density of the bacterial cells was compared to the McFarland turbidity standard (0.5).
(§2) Plates were swabbed with McFarland 0.5 inoculum of each test bacteria. […] serial dilutions of the peptides were prepared and 20 μl of compound were dropped onto the MHA. Antibiotic disc served as a positive control and vehicle alone served as the negative control. Plates were incubated for 16-18 hours and assessed for antibacterial activity. Zones of inhibition were measured for each TA dilution and compared with the controls.

[2] = system: Streptococcus pneumoniae DCC1335; test: Diffusion agar plate method, zone of inhibition; type: cell-based; details: 62.5 μg/ml to 1000 μg/ml; FIG. 10
Procedure: as §1, §2

[3] = system: interleukin-8 (IL-8) production in human fibroblasts; test: Fibroblast inflammation assay (LPS-induced IL-8, ELISA); type: cell-based; details: LPS induction
Procedure: Inflammation in fibroblasts leads to the production of the chemokine interleukin-8 (IL-8), which stimulates fibroblast to myofibroblast transition (MFT) thereby enhancing scar formation. To determine if the peptides of the instant disclosure affect fibroblast response to inflammation and fibroblast IL-8 production, the following assays were performed.
Human fibroblasts were grown as described above. HNDFs were plated in 96 well plates at a concentration of 1×10^4 cells/well and allowed to incubate overnight. The next day cells were dosed with 5 μg/mL of LPS with and without the peptides. The negative control contained only media and vehicle, while the positive control was dosed with lipopolysaccharides (LPS) and dexamethasone (50 μg/ml). After 24 hours, the media was removed to measure IL6 and IL8 cytokine levels using ELISA. A standard curve was plotted in excel. All data were blank subtracted and then fit onto the curve to calculate cytokine concentrations.

[4] = system: Keratinocytes; test: Keratinocyte scratch assay; type: cell-based, human; parameters: Keratinocyte scratch assay (% change relative to control): unit not given here
Procedure: HNDF fibroblasts were grown as described above. HNDFs were split from 1-10 cm plate to 4-24 well plates. Cells were allowed to grow until 90-100% confluent. Cells were serum starved (in 1% FBS in DMEM) for 4 hours before scratching using the Biotek Autoscratch machine. Cells were washed with PBS and the media was replaced with starvation media as a negative control, normal media (10% FBS) as positive control, and starvation media+compound as the test article. Cells were imaged at T=0 to serve as a baseline and fixed at T=48 hours. The images at 48 hours were imaged using phase contrast microscopy or with wheat germ agglutinin (WGA) stain.
Scratch assays were also performed on keratinocytes. Keratinocytes were grown to confluency and scratch assays were performed and measured as above with fibroblasts.

[5] = system: Normal human dermal fibroblasts (HNDF); test: Myofibroblast transition assay (MFT), aSMA immunofluorescence; type: cell-based; details: for Myofibroblast transition (MFT), aSMA/cell, % change relative to control / MFT, Representative value from experiments (% change relative to control): N = 3; for Myofibroblast transition (MFT), aSMA/cell, % change relative to control: TGF-Beta induced HNDF, control of no peptide; for MFT, Representative value from experiments (% change relative to control): most effective significant concentration of 10, 100, 1000 ng/ml
From the text: The myofibroblast transition (MFT) assay determines the effect of the peptide on inhibiting the transition of fibroblasts to myofibroblasts. The extracellular matrix produced by myofibroblasts may be produced in excess and may not be remodeled during tissue healing, leaving behind the fibrous connective tissue that forms a scar. Thus, the ability to regulate the degree of MFT may enable control of scarring. To determine if the peptides provided herein affect MFT, the following assay was performed.
Normal human dermal fibroblasts (HNDF) were cultured in high glucose Dulbecco's modified eagle medium (DMEM) supplemented with 10% fetal bovine serum (FBS) and 5 ml of 10,000 units of penicillin/streptomycin. Cells were cultured on 10 cm plates with media changes every 2 days. Cells were passaged in 0.25% Trypsin/EDTA after achieving 80% confluency.
To induce myofibroblast transition (MFT), normal human dermal fibroblasts (HNDFs) were split from 1-10 cm plates to 5-96 well plates. Cells were then allowed to grow the next day. The following day, cells were serum starved (1% FBS in DMEM) for 4 hours prior to adding 20 ng/ml of TGF-Beta to all wells of the plate. 1000 μM of Vactosertib (TEW-7197/EW-7197) was added to serve as a positive control and different concentrations of peptides were added to serve as the test articles. The cells were then exposed to the compounds for 5 more days before fixation.
The cells were fixed in paraformaldehyde (PFA) for 10-15 minutes, then washed 2× in PBS. Cells were blocked in 4% BSA for 30 minutes at 23° C. Cells were stained with the primary alpha-smooth muscle actin (aSMA) antibody (1:100) for 1 hour at 23° C. or left out at 4° C. overnight. Cells were rinsed 2× with BSA and then the secondary antibody mix was added: Alexa 488 (1:500) and DAPI (1:1000) for 30 min at 23° C. or 1 hr at 4° C. The plates were covered during staining, then rinsed 2× in BSA and stored in PBS.
Plates were imaged using the Celigo Imaging Cytometer by Nexcelcom. The ratio of fluorescent expression of alpha-smooth muscle actin (aSMA) and DAPI were quantified to determine the amount of aSMA/cell.
The change (normalized to the control) in MFT for each concentration is shown along with the p value for all experiments relative to the control of no peptide.

[6] = system: skin after dermabrasion; test: Clinical study, Visioscan skin smoothness after dermabrasion; type: in vivo, human; details: 8, 24, 48 and 72 hours after dermabrasion; vehicle cream base
Procedure: (§3) To determine the effects of exemplary peptides p1-p9 on tissue healing, a clinical study was performed that assessed transepidermal water loss (TEWL) and skin smoothness after dermabrasion.
(§4) This exemplary vehicle cream has a pH of 5.0, no odor and is white in color.
(§5) After 8 hours (T8h) of first product application, the subjects returned to the Institute, acclimated for 15 minutes and new Vapometer® to measure TEWL and Visioscan® VC 20Plus to measure skin smoothness was performed. After 1 (T1d), 2 (T2d) and 3 (T3d) days the subjects returned to the Institute, acclimated for 15 minutes and new measurements were performed. At time-points T1d and T2d new product application was performed by the technician on each test site. A total of 49 study subjects were included in the study and a total of 41 completed the study. The study included post-menopausal female subjects, aged between 50 and 65 years old (mean age: 59 years old), presenting Fitzpatrick Skin Types II-V.
Skin texture images were performed using the Visioscan® VC 20Plus, which allows taking pictures of the skin through magnifying lenses. The images enable a view of the skin topography, texture, dryness, desquamation, blemishes, pores, and cuticles.

[7] = system: skin post-dermabrasion; test: Clinical study, erythema (Chromameter a* value) post-dermabrasion; type: in vivo, human; details: 4 hours and 12 hours after application
Procedure: To determine the effects of the peptides on skin redness, the peptides P2, P3, and the combination of P2+P3 were tested at different concentration levels and subject's skin redness (erythema) was measured post-dermabrasion and 2, 4, 8, 12, 24, 48 and 72 hours post-application. The subjects were 30 post-menopausal female subjects, aged 50-65 years or younger, if post-menopausal. Enrolled subjects were to have Fitzpatrick Skin Types II-V. At baseline (post-dermabrasion) and 2, 4, 8, 12, 24, 48 and 72 hours post-application, skin redness was measured on 4 skin sites using the Chromameter® (Konica Minolta, Ramsey NJ). In order to determine any changes in skin redness, the a* value was analyzed. The a* value measures redness/erythema in the skin. A decrease in the a* value corresponded to a whitening/improvement (less red) effect and an increase in the a*value represented a darkening/worsening (redder) effect

[8] = system: skin after dermabrasion; test: Clinical study, transepidermal water loss (TEWL, Vapometer) after dermabrasion; type: in vivo, human; details: 8, 24, 48 hours, vehicle cream base
Procedure: as §3, §4
as §5, with “The study included post-menopausal female subjects, aged between 50 and 65 years old (mean age: 59 years old), presenting Fitzpatrick Skin Types II-V.” left out
The TEWL measurements were performed by using the Vapometer® device through a measurement probe. The readings were taken by applying the probe to the test sites, by resting it against the skin.
The measurements principle is diffusion, which indicates the mass of water per cm^2 that is transported in a given period of time, that is, the reading indicates the degree of water evaporation on the skin surface based on the sensitivity of hygro-sensors. The scale used is g/h/m^2, in which greater values of reading indicate higher evaporation. […]

[9] = system: Acinetobacter baumannii ATCC 196062; test: Broth microdilution method (MIC50/MIC90); type: cell-based; details: FIG. 11
Procedure: as §1
Ten-fold serial dilution of the peptide along with controls were prepared in Mueller Hinton Broth (MHB) media in a total volume of 50 μl in 96 well plates. Additionally, 50 μl of the diluted standard inoculum (1:150 in MHB media) were added to each of the well plates. The plates were read at OD600 nm. MIC50 and MIC90 curves were calculated from the plate readout. Each sample was run in duplicate.

Substance	agar zone of inhibition, inhibiting bacterial growth [1]	agar zone of inhibition, inhibiting bacterial growth [2]	Myofibroblast transition (MFT), aSMA/cell, % change relative to control ([5]; 1000 ng/ml peptide)	MFT, Representative value from experiments (% change relative to control) [5]	skin smoothness (Visioscan) [6]	skin redness (erythema), a* value [7]	TEWL, skin barrier restoration [8]	other results
TFMSHLFCCVQKRCDCSF [MBdol23]	effective	effective	–	–	–	–	–	–
QFCGPCGLRKRLRKFRNK [MBb11]	–	–	−0.419%	−0.419 p = (0.025) %	–	–	–	effect on IL-8 inhibition in fibroblasts relative to the negative control [3]: low but significant effect; increase of keratinocyte migration [4]: at least 39%; rate of keratinocyte migration [4]: significantly increased; Keratinocyte scratch assay (% change relative to control) ([4]; 1000 ng/ml, N = 8): 0.3892; Myofibroblast transition (MFT), aSMA/cell, % change relative to control ([5]; 100 ng/ml peptide): −0.3537%
SKPAKAPE [Peptide P3]	–	–	−0.4914%	−0.4914 p = (0.006) %	visible; also recorded: most promising skin smoothness results	significantly improved erythema; also recorded: improve skin redness	most promising TEWL assay results; also recorded: most promising results in skin barrier restoration	aSMA decrease relative to the control (fluorescence, FIG. 3) ([5]; negative control of no peptide): 49%
SLSRTLWAWLPRPCKSN [MBdol20]	effective	effective	–	–	–	–	–	MIC50 and MIC90, inhibiting bacterial growth in broth [9]: most effective
GFWDIL WHIPHTIKG (GFWDILWHIPHTIKG) [MBdol15]	effective	effective	–	–	–	–	–	–
QRLLEAQAAT [Peptide P2]	–	–	–	–	visible; also recorded: most promising skin smoothness results	significantly improved erythema; also recorded: improve skin redness	most promising TEWL assay results; also recorded: most promising results in skin barrier restoration	–
